In patent US8859496B2, “Pharmaceutical composition using connective-tissue growth factor” (Postech Academy-Industry Foundation, priority 2010, dated 2014):
Each block holds one substance with its values, some of them ahead of it. No end group written: not given here.

Columns and labels:
HUVECs [1] = test: HUVEC tube formation on Matrigel; type: cell-based, human
Experimental: Meanwhile, to analyze tube formation, HUVECs were inoculated on the previously polymerized Matrigel (BD Biosciences) layer together with a certain amount of linker polypeptide, rhCTGF or VEGF-A165. After culturing for 18 hours, the shape of the cells was observed by phase-contrast microscopy, and photographed with 40× magnification. By measuring the length of tubes 5 times in LPF (low-power fields) randomly selected from each well using image-Pro Plus v4.5 (Media Cybernetics, Silver Spring, Md.), the degree of tube formation was quantified.
First, 20 ng/ml of VEGF-A was administered to HUVECs, the degree of cell proliferation, cell migration, or tube formation was confirmed by the <Experiment method 9>, and the results are shown in FIGS. 22 to 24. At this time, FPRL1 antagonist WRW4 was additionally added.

FPRL1 = target: T1, FPRL1 (Homo sapiens, UniProt P25090); test: Intracellular Ca2+ measurement (fluo-3-AM) in FPRL1/RBL, vector/RBL or FPR/RBL cells; type: cell-based
T1 construct: expressed in transfected cells; host or cells: rat basophil leukemia RBL-2H3 cells, kept under G418
T1 sequence (P25090 1-351): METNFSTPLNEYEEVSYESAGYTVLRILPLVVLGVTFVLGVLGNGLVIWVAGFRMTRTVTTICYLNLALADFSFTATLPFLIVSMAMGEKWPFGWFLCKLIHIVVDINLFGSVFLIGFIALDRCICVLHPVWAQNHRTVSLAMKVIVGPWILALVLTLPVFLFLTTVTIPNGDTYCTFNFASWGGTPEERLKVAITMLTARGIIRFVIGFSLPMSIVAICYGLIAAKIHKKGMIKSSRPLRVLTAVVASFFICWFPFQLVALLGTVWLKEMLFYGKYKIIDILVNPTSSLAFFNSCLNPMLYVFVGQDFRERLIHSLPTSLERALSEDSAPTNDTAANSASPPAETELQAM
Experimental: FPRL1/RBL, vector/RBL or FPR/RBL cells were cultured in a fluo-3-AM working solution containing 0.03% (w/v) plutonic F-127 (Molecular Probes) at 37° C. for 1 hour so that the final concentration of fluo-3-AM became 20 uM/L. After the culturing, fluo-3-AM fluorescence occurred at 488 nm with high-power Ar^+ laser in the cells, and the emission band was measured at 530 nm with photomultiplier. Fluorescence signal was detected using confocal laser scanning system (LSM 510 Meta; Carl Zeiss, Jena, Germany) equipped with Nikon E-600 Eclipse microscope. Fluorescence intensities before adding CTGF (F0) and after adding CTGF (F) were measured. Change in the intracelullar Ca^2+ concentration [Ca^2+]i was indicated by F/F0 ratio. From each cell, 50 to 120 images were scanned.
Since activation of FPRL1 increases intracellular Ca^2+ concentration, the inventors confirmed whether CTGF linker polypeptide activates FPRL1 to finally increase intracellular Ca^2+ concentration by the <Experiment method 8>, and the results are shown in FIG. 12.

[2] = tested on: CAM (chorioallantoic membrane); test: In vivo CAM (chorioallantoic membrane) angiogenesis analysis
Experimental: In vivo CAM analysis was conducted according to a previously known method (Lee, M.-S. et al. Angiogenic Activity of Pyruvic Acid in in Vivo and in Vitro Angiogenesis Models. Cancer Res 61, 3290-3293, 2001).
Fertilized eggs were cultured in an egg breeder set to fixed moisture at 37° C. 3 days after the culture, to take off expressed CAM from the shell, about 2 ml of egg albumin was taken out with 18-gague subcutaneous needle. After additionally culturing for 6 days, thermanox coverslips (Nunc) containing the sample was dried in the air, and applied to the CAM surface to test the activity of angiogenesis by linker polypeptide or rhCTGF. After 3 days, 1-2 ml of 10% (w/v) Intralipose was injected into chorioallantois, and observed with microscope.
And, it was confirmed by the <Experiment method 10> that in case HUVECs are treated with FPRL1 antagonist (10 ug/CAM) in vivo, angiogenesis activity of VEGF-A (25 ng/CAM) is inhibited, and the results are shown in FIG. 28.

HUVECs [3] = test: ERK phosphorylation in HUVECs (immunoblot); type: cell-based, human
Experimental: Vector/RBL cells, FPR/RBL cells, FPRL1/RBL cells, and HUVECs were cultured to confluence, and serum-starved. The stimulated cells (1×10^5 cells) were washed with PBS twice, dissolved in 1 ml of sample buffer (50 mM Tris-HCl, 100 mM NaCl, 0.1% SDS, 1% Nonidet P-40, 50 mM NaF, 1 mM Na3VO4, 1 μg/ml aprotinin, 1 μg/ml pepstatin, and 1 μg/ml leupeptin), heated at 95° C. for 30 seconds, separated with SDS-PAGE, and then, transferred to a nitrocellulose film. Immunoblot was conducted using anti-phospho-ERK (extracellular signal regulated kinase)1/2 (Thr^202/Tyr^204)(Cell Signaling Technology, Beverly, Mass., USA), anti-ERK1/2 (Cell Signaling Technology, Beverly, Mass., USA), anti-CTGF (Abcam, Cambridge, Mass., USA), anti-Actin (Sigma, St. Louis, Mo., USA), or anti-Flag (Sigma, St. Louis, Mo., USA) antibody, and then, the film was visualized with a chemiluminescence substrate (Amersham Pharmacia).
Meanwhile, HUVECs were treated with the CTGF linker polypeptide or rhCTGF at various concentrations for 5 minutes, cell lysate was obtained, and then, immuboblot was conducted with anti-phospho ERK1/2 antibody, and the results are shown in FIG. 14.

Ca2+ concentration increase, cell specificity (FPRL1; confocal microscope, FPRL1/RBL, vector/RBL or FPR/RBL cells): increased only in FPRL1/RBL cells
Substance: EWVCDEPKDQTVVGPALAAYRLEDTFGPDPTMIRANCLV (EWVCDEPKDQTVVGPALAAYRLEDTFGPDPTMIRANCLV-NH2; cysteine pairing not given here) [CTGF linker polypeptide]
tube formation of HUVECs (HUVECs [1]; 18 hours, compared to recombinant CTGF): induces tube formation of HUVECs more effectively than recombinant CTGF
Ca2+ concentration, concentration dependence (FPRL1; FPRL1/RBL cells): increases dependently upon the concentration of CTGF linker polypeptide
Ca2+ increasing activity compared to rhCTGF and WKYMVm (FPRL1; FPRL1/RBL cells): more effective than rhCTGF and is similar to positive control of FPRL1 agonist WKYMVm
angiogenesis in vivo (CAM) ([2]; sample on coverslip on CAM, 3 days): very strongly induces angiogenesis also in vivo in a concentration-dependent manner
ERK phosphorylation in HUVECs (HUVECs [3]; various concentrations, 5 minutes): ERK phosphorylation is effectively induced

Substance: WRWWWW (FPRL1 antagonist) [WRW4]
effect of antagonist on HUVEC tube formation induced by VEGF-A (HUVECs [1]; VEGF-A 20 ng/ml, WRW4 10 uM): the tube formation is not induced
effect of antagonist on HUVEC tube formation induced by CTGF linker polypeptide (HUVECs [1]; WRW4 10 uM): the tube formation is not be induced
effect of antagonist on intracellular Ca2+ increase by CTGF linker polypeptide (FPRL1; WRW4 10 uM): the degree of intracellular Ca^2+ concentration increase by CTGF linker polypeptide decreases
effect of antagonist on CAM angiogenesis induced by VEGF-A ([2]; FPRL1 antagonist 10 ug/CAM, VEGF-A 25 ng/CAM): strongly inhibits angiogenesis induced by VEGF-A
effect of antagonist on CAM blood vessel formation induced by CTGF linker polypeptide ([2]; WRW4 10 uM): the blood vessel formation is not induced
effect of antagonist on ERK phosphorylation in HUVECs (HUVECs [3]; WRW4 10 uM): ERK phosphorylation is inhibited
